Results from US9393192B2, “Methods and dosage forms for controlled delivery of paliperidone and risperidone” (ALZA CORPORATION, priority 2002, dated 2016).

Tests used:
[1] = stability testing / degradation of paliperidone; type: physicochemical; settings: stress conditions, stability testing (FIGS. 7, 8, 9A, 9B)
From the text: FIGS. 8, 9A and 9B illustrate the increased stability of paliperidone in the dosage forms incorporating the protective subcoat compared to dosage forms not incorporating the protective subcoat.

[2] = cited from earlier work
[3] = in vivo; cited from earlier work

In the case of `Cc1nc2n(c(=O)c1CCN1CCC(c3noc4cc(F)ccc34)CC1)CCCC2O` (stereo not shown) [paliperidone], the degradation / stability [1] is given as “degrades into notable amounts of impurities”, the solubility in water [2] is given as “practically insoluble in water” and the half-life [3] is given as “about one”.
In the case of `Cc1nc2n(c(=O)c1CCN1CCC(c3noc4cc(F)ccc34)CC1)CCCC2` [risperidone], the solubility in water [2] is listed as “practically insoluble in water”.
